Laboratory results from BigSolDB 2.1.

O=c1cc(CBr)c2ccccc2[nH]1
solubility (mole fraction)
Settings | 278.15 K | 283.15 K | 288.15 K | 293.15 K | 298.15 K | 303.15 K | 308.15 K | 313.15 K | 318.15 K
in NMP | 0.00539 | 0.00606 | 0.00705 | 0.0081 | 0.00928 | 0.0105 | 0.0119 | 0.0135 | 0.0151
in ethanol | 0.00019 | 0.000211 | 0.000235 | 0.000261 | 0.000286 | 0.000316 | 0.000347 | 0.000378 | 0.000411
in isopropanol | 0.000152 | 0.000175 | 0.000202 | 0.000229 | 0.00026 | 0.000293 | 0.000328 | 0.000365 | 0.000406
in n-propanol | 0.000242 | 0.000269 | 0.000297 | 0.000325 | 0.000357 | 0.00039 | 0.00043 | 0.000466 | 0.000505
in water | 4.78e-06 | 6.58e-06 | 9.12e-06 | 1.25e-05 | 1.67e-05 | 2.16e-05 | 2.88e-05 | 3.76e-05 | 4.76e-05
